From PubChem BioAssay AID330 (DTP/NCI, 2004)
Values joined by “and” are separate entries in the source; they are usually repeats but may differ in a detail not shown here. Equal entries are not always repeated. Toxic doses and inconclusive results are not listed. Numbered stars: 1 amine (or outer) side, 2 acyl side, 3 side chain; on linkers, the order of the positions; unused ones are H or OH. Bridge positions count the residues as written; N and C are the ends. Square brackets hold non-standard residues; d marks the D form. Peptide text beside a SMILES is read from it. I, II: the chains in the order shown. * marks the point of attachment. ξ: configuration not given here. Quinaldoyl(3-OH,6-OMe) = COc1ccc2nc(C(=O)*)c(O)cc2c1; X8 = CC(=O)OC1CC=NN([*:1])C1C(=O)[*:2]; ξNMeVal(3-OH) = CNC(C(=O)O)C(C)(C)O; X20 = O=C(C1CCCNN1[*:1])[*:2]; Sar = CNCC(=O)O

Test system: P388 leukemia ip, CD2F1 mice, survival T/C
Experiment: NCI In Vivo Anticancer Drug Screen. Data for tumor model P388 Leukemia (intraperitoneal) in CD2F1 (CDF1) mice
Details: endpoint: median survival time, higher = longer survival
Summary of the method: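 Mice carrying the transplanted tumor received test compound or vehicle. Survival was recorded in each group, and the value is the treated-group measurement divided by that of the vehicle-treated control group.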

[1] = dose: 25.0 mg/kg/injection, schedule: Q01DX009 (ip), vehicle: saline with Tween-80
[2] = dose: 50.0 mg/kg/injection, schedule: Q01DX009 (ip), vehicle: saline with Tween-80
[3] = dose: 100.0 mg/kg/injection, schedule: Q01DX009 (ip), vehicle: saline with Tween-80
[4] = dose: 25.0 mg/kg/injection, schedule: Q01DX009 (ip), vehicle: Klucel (hydroxypropylcellulose) (HPC)
[5] = dose: 50.0 mg/kg/injection, schedule: Q01DX009 (ip), vehicle: Klucel (hydroxypropylcellulose) (HPC)
[6] = dose: 100.0 mg/kg/injection, schedule: Q01DX009 (ip), vehicle: Klucel (hydroxypropylcellulose) (HPC)
[7] = dose: 200.0 mg/kg/injection, schedule: Q01DX009 (ip), vehicle: Klucel (hydroxypropylcellulose) (HPC)
[8] = dose: 50.0 mg/kg/injection, schedule: Q01DX009 (ip), vehicle: saline
[9] = dose: 25.0 mg/kg/injection, schedule: Q01DX005 (ip), vehicle: saline
[10] = dose: 100.0 mg/kg/injection, schedule: Q01DX005 (ip), vehicle: saline with Tween-80
[11] = dose: 200.0 mg/kg/injection, schedule: Q01DX005 (ip), vehicle: saline with Tween-80
[12] = dose: 50.0 mg/kg/injection, schedule: Q01DX005 (ip), vehicle: saline
[13] = dose: 100.0 mg/kg/injection, schedule: Q01DX005 (ip), vehicle: saline

NC(CO)C(O)c1ccc(N=Nc2ccc(O)cc2)cc1 (configuration not stated)
T/C [1]: 95 % of control
T/C [2]: 100 % of control
T/C [3]: 95 % of control

Cc1ccc(N2CCN(CC(O)COc3cc4ccccc4c4c3CCCC4)CC2)cc1C (configuration not stated)
T/C (dose: 100.0 mg/kg/injection, schedule: Q04DX003 (ip), vehicle: Klucel (hydroxypropylcellulose) (HPC)): 95 % of control
T/C (dose: 200.0 mg/kg/injection, schedule: Q04DX003 (ip), vehicle: Klucel (hydroxypropylcellulose) (HPC)): 104 % of control
T/C (dose: 400.0 mg/kg/injection, schedule: Q04DX003 (ip), vehicle: Klucel (hydroxypropylcellulose) (HPC)): 108 % of control

CCCCCC[C@H]([C@H](C)O)n1cnc2c(N)ncnc21
T/C (dose: 1.56 mg/kg/injection, schedule: Q01DX009 (ip), vehicle: Klucel (hydroxypropylcellulose) (HPC)): 100 % of control
T/C (dose: 3.12 mg/kg/injection, schedule: Q01DX009 (ip), vehicle: Klucel (hydroxypropylcellulose) (HPC)): 100 % of control
T/C (dose: 4.0 mg/kg/injection, schedule: Q01DX005 (ip), vehicle: Klucel (hydroxypropylcellulose) (HPC)): 100 % of control
T/C (dose: 6.25 mg/kg/injection, schedule: Q01DX009 (ip), vehicle: Klucel (hydroxypropylcellulose) (HPC)): 98 % of control
T/C (dose: 8.0 mg/kg/injection, schedule: Q01DX005 (ip), vehicle: Klucel (hydroxypropylcellulose) (HPC)): 102 % of control
T/C (dose: 12.5 mg/kg/injection, schedule: Q01DX009 (ip), vehicle: Klucel (hydroxypropylcellulose) (HPC)): 105 % of control
T/C (dose: 16.0 mg/kg/injection, schedule: Q01DX005 (ip), vehicle: Klucel (hydroxypropylcellulose) (HPC)): 100 % of control
T/C [4]: 105 % of control and 96 % of control
T/C (dose: 32.0 mg/kg/injection, schedule: Q01DX005 (ip), vehicle: Klucel (hydroxypropylcellulose) (HPC)): 104 % of control
T/C [5]: 104 % of control and 96 % of control
T/C (dose: 64.0 mg/kg/injection, schedule: Q01DX005 (ip), vehicle: Klucel (hydroxypropylcellulose) (HPC)): 100 % of control
T/C [6]: 98 % of control
T/C [7]: 98 % of control

S=C1N(c2ccccc2)CCN1c1ccccc1
T/C (dose: 60.0 mg/kg/injection, schedule: Q01DX005 (ip), vehicle: Klucel (hydroxypropylcellulose) (HPC)): 101 % of control
T/C (dose: 120.0 mg/kg/injection, schedule: Q01DX005 (ip), vehicle: Klucel (hydroxypropylcellulose) (HPC)): 100 % of control
T/C (dose: 240.0 mg/kg/injection, schedule: Q01DX005 (ip), vehicle: Klucel (hydroxypropylcellulose) (HPC)): 94 % of control

Cc1ccc(C(=O)/C([S-])=C(\Nc2cccc(Cl)c2)[n+]2ccccc2)cc1
T/C (dose: 50.0 mg/kg/injection, schedule: Q01DX005 (ip), vehicle: Klucel (hydroxypropylcellulose) (HPC)): 100 % of control
T/C (dose: 100.0 mg/kg/injection, schedule: Q01DX005 (ip), vehicle: Klucel (hydroxypropylcellulose) (HPC)): 98 % of control
T/C (dose: 200.0 mg/kg/injection, schedule: Q01DX005 (ip), vehicle: Klucel (hydroxypropylcellulose) (HPC)): 93 % of control

Nc1ccc2c(c1)CN1C(=O)c3ccccc3C1=N2
T/C (dose: 6.25 mg/kg/injection, schedule: Q01DX009 (ip), vehicle: saline with Tween-80): 100 % of control
T/C (dose: 12.5 mg/kg/injection, schedule: Q01DX009 (ip), vehicle: saline with Tween-80): 93 % of control
T/C (dose: 22.2 mg/kg/injection, schedule: Q01DX009 (ip), vehicle: saline with Tween-80): 111 % of control
T/C [1]: 96 % of control
T/C (dose: 25.0 mg/kg/injection, schedule: Q01DX009 (ip), vehicle: saline): 91 % of control
T/C (dose: 30.0 mg/kg/injection, schedule: Q01DX009 (ip), vehicle: saline with Tween-80): 104 % of control
T/C (dose: 33.4 mg/kg/injection, schedule: Q01DX009 (oral), vehicle: saline with Tween-80): 97 % of control
T/C (dose: 40.0 mg/kg/injection, schedule: Q01DX009 (ip), vehicle: saline with Tween-80): 90 % of control
T/C [8]: 161 % of control
T/C (dose: 50.0 mg/kg/injection, schedule: Q01DX009 (oral), vehicle: saline with Tween-80): 108 % of control
T/C (dose: 60.0 mg/kg/injection, schedule: Q01DX009 (ip), vehicle: saline with Tween-80): 119 % of control
T/C (dose: 75.0 mg/kg/injection, schedule: Q01DX009 (oral), vehicle: saline with Tween-80): 108 % of control
T/C [3]: 100 % of control and 93 % of control
T/C (dose: 112.4 mg/kg/injection, schedule: Q01DX009 (ip), vehicle: saline with Tween-80): 121 % of control
T/C (dose: 112.4 mg/kg/injection, schedule: Q01DX009 (oral), vehicle: saline with Tween-80): 117 % of control
T/C (dose: 168.5 mg/kg/injection, schedule: Q01DX009 (oral), vehicle: saline with Tween-80): 108 % of control

C=CC(O)C(C)C(=O)O (configuration not stated)
T/C (dose: 6.25 mg/kg/injection, schedule: Q01DX005 (ip), vehicle: saline): 93 % of control
T/C (dose: 12.5 mg/kg/injection, schedule: Q01DX005 (ip), vehicle: saline): 95 % of control
T/C [9]: 90 % of control
T/C [10]: 98 % of control
T/C [11]: 98 % of control

COC[n+]1cccc(C2CCC[N+]2(C)C)c1 (configuration not stated)
T/C [8]: 101 % of control
T/C (dose: 100.0 mg/kg/injection, schedule: Q01DX009 (ip), vehicle: saline): 107 % of control
T/C (dose: 200.0 mg/kg/injection, schedule: Q01DX009 (ip), vehicle: saline): 114 % of control

Nc1nc(-c2ccccc2)c(Br)c(=O)[nH]1
T/C [10]: 112 % of control
T/C [11]: 105 % of control
T/C (dose: 400.0 mg/kg/injection, schedule: Q01DX005 (ip), vehicle: saline with Tween-80): 100 % of control

NC(=O)SCC(=O)Nc1ccc2ncccc2c1
T/C (dose: 100.0 mg/kg/injection, schedule: Q01DX009 (ip), vehicle: saline sonified): 100 % of control
T/C (dose: 100.0 mg/kg/injection, schedule: Q04DX003 (ip), vehicle: saline sonified): 100 % of control
T/C (dose: 200.0 mg/kg/injection, schedule: Q01DX009 (ip), vehicle: saline sonified): 113 % of control
T/C (dose: 200.0 mg/kg/injection, schedule: Q04DX003 (ip), vehicle: saline sonified): 100 % of control
T/C (dose: 400.0 mg/kg/injection, schedule: Q01DX009 (ip), vehicle: saline sonified): 90 % of control
T/C (dose: 400.0 mg/kg/injection, schedule: Q04DX003 (ip), vehicle: saline sonified): 104 % of control

CCN(CC)P(c1ccccc1)N(CC)CC
T/C (dose: 100.0 mg/kg/injection, schedule: Q01DX001 (ip), vehicle: saline): 101 % of control
T/C (dose: 200.0 mg/kg/injection, schedule: Q01DX001 (ip), vehicle: saline): 111 % of control
T/C (dose: 400.0 mg/kg/injection, schedule: Q01DX001 (ip), vehicle: saline): 104 % of control

COc1ccc2nc(C(=O)NC3COC(=O)C(C(C)(C)O)N(C)C(=O)CN(C)C(=O)CNC(=O)C4CCCNN4C(=O)C(NC(=O)c4nc5ccc(OC)cc5cc4O)COC(=O)C(C(C)(C)O)N(C)C(=O)CN(C)C(=O)CNC(=O)C4C(OC(C)=O)CC=NN4C3=O)c(O)cc2c1 (configuration not stated) (I: {Quinaldoyl(3-OH,6-OMe)}-S[X8]G[Sar][ξNMeVal(3-OH)] / II: {Quinaldoyl(3-OH,6-OMe)}-S[X20]G[Sar][ξNMeVal(3-OH)]; ester I:1-II:C, I:C-II:1; configuration not given here)
T/C (dose: 20.0 micrograms/kg/injection, schedule: Q01DX005 (ip), vehicle: DMSO): 97 % of control
T/C (dose: 40.0 micrograms/kg/injection, schedule: Q01DX005 (ip), vehicle: DMSO): 87 % of control

CS(=O)(=O)OCC1CCSC1=O (configuration not stated)
T/C [2]: 100 % of control
T/C [3]: 106 % of control
T/C (dose: 200.0 mg/kg/injection, schedule: Q01DX009 (ip), vehicle: saline with Tween-80): 108 % of control

CCCOc1ccc(-c2nc(-c3ccc(N)cc3)cs2)cc1
T/C [5]: 111 % of control
T/C [6]: 109 % of control
T/C [7]: 109 % of control

CNc1ccc(F)cc1SSc1cc(F)ccc1NC
T/C [4]: 108 % of control
T/C [5]: 110 % of control
T/C [6]: 115 % of control

O=C1CN(C2OC(CO)C(O)C2O)C(=O)NC1=O (configuration not stated)
T/C [9]: 112 % of control
T/C [12]: 113 % of control
T/C (dose: 50.0 mg/kg/injection, schedule: Q01DX005 (ip), vehicle: suspension in saline): 100 % of control
T/C [13]: 99 % of control and 116 % of control
T/C (dose: 100.0 mg/kg/injection, schedule: Q01DX005 (ip), vehicle: suspension in saline): 107 % of control
T/C (dose: 200.0 mg/kg/injection, schedule: Q01DX005 (ip), vehicle: saline): 116 % of control
T/C (dose: 200.0 mg/kg/injection, schedule: Q01DX005 (ip), vehicle: suspension in saline): 109 % of control
T/C (dose: 400.0 mg/kg/injection, schedule: Q01DX005 (ip), vehicle: suspension in saline): 116 % of control

CC1(C)CC2CCCCN2CO1 (configuration not stated)
T/C [12]: 112 % of control
T/C [13]: 108 % of control
